According to patent US7101878B1 (Agouron Pharmaceuticals, Inc., priority 1998, dated 2006):
Where two headings read alike, the source gives them in different places.

Tests used:
[1] = biological target: T1, hGnRH receptor (Homo sapiens, UniProt P30968); assay: Total inositol phosphates measurement, 293 cells containing the hGnRH receptor; assay type: cell-based
T1 construct: expressed in transfected cells; host or cells: HEK 293 (hGnRH-R/293, from Dr. Stuart Sealfon)
T1 sequence (P30968 1-328): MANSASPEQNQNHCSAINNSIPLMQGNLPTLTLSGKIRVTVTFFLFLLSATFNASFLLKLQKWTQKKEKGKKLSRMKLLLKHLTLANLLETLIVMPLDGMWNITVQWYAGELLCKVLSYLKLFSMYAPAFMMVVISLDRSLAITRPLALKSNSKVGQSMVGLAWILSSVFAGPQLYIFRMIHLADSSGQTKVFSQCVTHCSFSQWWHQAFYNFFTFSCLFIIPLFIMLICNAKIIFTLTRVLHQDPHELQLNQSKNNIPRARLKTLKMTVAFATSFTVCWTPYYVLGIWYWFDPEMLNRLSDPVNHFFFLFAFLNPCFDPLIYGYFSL
Description: To assess the activity of the compounds as agonists or antagonists, an assay measuring accumulation of total inositol phosphates was employed. 293 cells containing the hGnRH receptor were plated onto 24-well plates (approximately 200,000 cells/well) using DMEM media. […] The medium was aspirated and the cells rinsed with serum-free DMEM. The medium was aspirated and the cells were then treated with test compounds or vehicle for 30 minutes at 37° C. […] The media was replaced with ice-cold 10 mM formic acid, which stopped the reaction and also served to extract cellular lipids. Inositol phosphates were separated by ion-exchange chromatography on Dowex columns, which were washed with 2.5 mL of 10 mM myoinositol and 10 mM formic acid. The columns were then washed with 5 mL of 60 mM sodium formate and […], and total inositol phosphates were eluted with 5 mL 1M ammonium formate, 0.1 M formic acid. The column eluates were added to liquid scintillation vials containing 15 ml of scintillation cocktail and were counted by liquid scintillation counting.
This cell line was provided by Dr. Stuart Sealfon, Mount Sinai Medical School New York, N.Y. These cells were grown in DMEM supplemented with 0.2 g/L G418 100 U/ml penicillin/streptomycin and 10% FBS. Both GGH3 and hGnRH-R/293 cells were utilized for both for both total inositol phosphate measurement and for microphysiometry assessment of compound efficacy.

[2] = biological target: T2, human GnRH receptor (Homo sapiens, UniProt P30968); assay: Radioligand binding, 125I-GnRH-A displacement, membranes of HEK 293 cells with human GnRH receptor
T2 construct: expressed in transfected cells; host or cells: HEK 293 (hGnRH-R/293, from Dr. Stuart Sealfon)
T2 sequence (P30968 1-328): T1 sequence (P30968 1-328)
Method in brief: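 After filtration and PBS washes, bound radioactivity was counted by scintillation and IC50 derived. Identical conditions applied for non-human receptors.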

[3] = biological target: T3, rat GnRH receptor (Rattus norvegicus, UniProt P30969); assay: Radioligand binding, 125I-GnRH-A, rat pituitary membranes; set-up: membranes were prepared from rat pituitary; from tissue; host or cells: rat pituitary
T3 sequence (P30969 1-327): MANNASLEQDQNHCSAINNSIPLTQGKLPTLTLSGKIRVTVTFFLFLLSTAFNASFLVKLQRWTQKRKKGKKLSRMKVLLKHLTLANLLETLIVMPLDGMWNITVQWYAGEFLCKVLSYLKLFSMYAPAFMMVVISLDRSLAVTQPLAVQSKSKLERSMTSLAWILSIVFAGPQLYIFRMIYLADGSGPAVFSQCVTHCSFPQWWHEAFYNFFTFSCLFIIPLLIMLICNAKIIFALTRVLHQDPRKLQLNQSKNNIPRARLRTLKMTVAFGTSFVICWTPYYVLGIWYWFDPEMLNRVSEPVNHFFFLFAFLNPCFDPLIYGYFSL
Method in brief: (§1)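 Bound label captured on 0.1% polyethyleneimine-treated GF/C filters, washed three times with PBS, counted. IC50 derived; identical set-up for every species.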

[4] = biological target: T4, bovine GnRH receptor (Bos taurus, UniProt P32236); assay: Radioligand binding, 125I-GnRH-A, bovine pituitary membranes
T4 construct: membranes were prepared from bovine pituitary; from tissue; host or cells: bovine pituitary
T4 sequence (P32236 1-328): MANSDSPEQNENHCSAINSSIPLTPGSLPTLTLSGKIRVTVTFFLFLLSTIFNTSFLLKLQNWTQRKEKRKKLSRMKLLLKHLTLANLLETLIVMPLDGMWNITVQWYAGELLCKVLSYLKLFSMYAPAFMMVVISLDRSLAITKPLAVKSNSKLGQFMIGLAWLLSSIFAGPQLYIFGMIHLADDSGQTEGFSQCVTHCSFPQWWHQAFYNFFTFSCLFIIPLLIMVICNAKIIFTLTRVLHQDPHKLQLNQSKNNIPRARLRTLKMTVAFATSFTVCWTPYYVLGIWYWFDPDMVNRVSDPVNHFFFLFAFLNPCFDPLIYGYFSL
Description: All compounds were diluted in 1% DMSO (final assay concentration) in binding assay buffer. […] Reactions were terminated by rapid filtration onto 96-well Packard GF/C filters soaked in 0.1% polyethyleneimine. Filters were washed three times with PBS buffer, dried and counted on a Packard Topcount by liquid scintillation counting.
Assay conditions were identical for assessing compound activities at other species. […] IC50 values for control peptides and test compounds were calculated utilizing GraphPad Prism™ software.
The reaction mixture was vortexed and incubated for 1 min at room temperature. After one min, the mixture was vortexed and allowed to incubate for an additional minute. 2 ml of 0.5 M acetic acid/1% BSA was added to the reaction tube and the mixture was added to a C18 Sep-Pak cartridge. The cartridge was washed with subsequent washes of 5 ml H2O and 5 ml 0.5M acetic acid and then eluted with 5×1 ml of 60% CH3CN/40% 0.5M acetic acid. The eluate was diluted with 3× volume of HPLC buffer A (0.1% TFA in H2O) and loaded onto a C18 column. […] The radioactive fractions (750 ed/fraction) are collected into clean polypropylene tubes containing 100 μl of 10% BSA. Fractions were assessed for biological activity by radioligand binding.

[5] = biological target: T5, mouse GnRH receptor (Mus musculus, UniProt Q01776); assay: Radioligand binding, 125I-GnRH-A, 293 cells expressing mouse GnRH receptors
T5 construct: expressed in transfected cells; host or cells: 293 cells
T5 sequence (Q01776 1-327): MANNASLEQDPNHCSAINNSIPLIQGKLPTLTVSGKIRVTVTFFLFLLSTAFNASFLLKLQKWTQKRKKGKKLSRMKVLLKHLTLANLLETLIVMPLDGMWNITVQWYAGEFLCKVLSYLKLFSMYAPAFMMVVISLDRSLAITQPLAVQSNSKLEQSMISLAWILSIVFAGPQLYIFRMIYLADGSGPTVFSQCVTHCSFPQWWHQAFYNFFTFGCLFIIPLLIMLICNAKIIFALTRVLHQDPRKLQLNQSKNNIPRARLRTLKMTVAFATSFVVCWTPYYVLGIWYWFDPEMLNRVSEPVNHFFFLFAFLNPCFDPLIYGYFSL
Method in brief: as §1

[6] = test system: LH levels in castrated rats; assay: Castrated male rat model, LH suppression; assay type: in vivo; conditions: 10 mg/kg iv
From the text: Experimental Protocol: Male Sprague-Dawley (225-250 g) rats were castrated and allowed 10 days postoperative recovery. Ten days post castration animals were instrumented with indwelling femoral venous and arterial catheters to facilitate remote infusions and blood sampling. On the day of the experiment, animals were allowed to acclimate to the procedure room while residing in their home cage. Basal blood samples were drawn from all animals. Following basal sampling, either vehicle (10% DMSO, 10% cremophor/saline), Antide (1.0 μg) or compound 11 (10 mg/kg) was administered intravenously. Blood samples were drawn 10, 60, 90, 120, 180, 240 minutes after injections. Blood was centrifuged, serum collected and stored in −70° freezer until assayed. Serum samples were analyzed using DSL-4600 ACTIVE LH coated-tube immunoradiometric assay kit from Diagnostic Systems Laboratories, Inc.
Surgical removal of the gonads removes circulating testosterone and eliminates the negative feedback of testosterone on the hypothalamus. […] This model seems suitable for evaluating small molecule GnRH antagonists.
Male Sprague-Dawley ([…]) rats were castrated via the scrotal approach under halothane anesthesia. Animals were allowed 14 days post operative recovery prior to study. Thirteen days following castration, animals were anesthetized with halothane and instrumented with indwelling jugular vein cannula. Details of the cannulation procedure have been described previously {Harms and Ojeda, 1974)}. On study day, animals were allowed to acclimate to the procedure room while residing in their home cage. Basal blood samples were drawn from all animals. Immediately following basal sampling, vehicle or test compounds were administered by various routes. The routes of administration employed were intravenous (iv), intramuscular (im), intraperitoneal (ip), subcutaneous (sc) and oral (po). Blood samples were drawn into heparin containing tubes at multiple time points post treatment. Blood was centrifuged immediately, plasma collected and stored in −20° freezer until assayed. Plasma samples were analyzed using DSL-4600 ACTIVE LH coated-tube immunoradiometric assay kit from Diagnostic Systems Laboratories, Inc.
Formulation #1 (denoted with superscript 1): 10% DMSO, 10% Cremophor EL and 80% physiological saline.
Formulation #2 (denoted with superscript 2): 10% Cremophor EL and 90% physiological saline.

[7] = Metabolism rate, pmol/min/mg at 1 μM, rat male; assay type: in vitro ADME; conditions: 1 μM compound
[8] = Metabolism rate, pmol/min/mg at 1 μM, human; assay type: in vitro ADME; conditions: 1 μM compound
[9] = Metabolism rate, pmol/min/mg at 1 μM, rat female; assay type: in vitro ADME; conditions: 1 μM compound
[10] = Pharmacokinetic studies / bioavailability in rats; assay type: in vivo, rat; conditions: rat female; for Cmax / Tmax / half-life: female, rat, plasma; for Cmax / Tmax: po, 10 mg/kg, p.o. 10 mg/kg; for Cmax / Tmax / Fp.o.: 5 mg/ml solution in 10% DMSO 10% cremophor 80% saline

Structure (SMILES)	Kb [1] [nM]	IC50 ([2]; means ± SE of at least three experiments performed in duplicate, read-out: Human IC50) [nM]	IC50 ([2]; read-out: hGnRH IC50) [nM]	IC50 ([2]; second value marked * (mostly in parentheses), asterisk not explained, read-out: hGnRH IC50, value marked *) [nM]	IC50 ([3]; means ± SE of at least three experiments performed in duplicate, read-out: Rat IC50) [nM]	IC50 ([3]; read-out: rGnRH IC50) [nM]	IC50 ([4]; means ± SE of at least three experiments performed in duplicate, read-out: Bovine IC50) [nM]	IC50 ([5]; means ± SE of at least three experiments performed in duplicate, read-out: Mouse IC50) [nM]	IC50 ([5]; read-out: mGnRH IC50) [nM]	GnRH functional ([1]; no species or readout annotated)	IC50 ([4]; read-out: bGnRH IC50) [nM]	Rat male pmol/min/mg 1 μM [7] [pmol/min/mg]	Human pmol/min/mg 1 μM [8] [pmol/min/mg]	Rat female pmol/min/mg 1 μM [9] [pmol/min/mg]	Cmax [10] [nM]	Tmax [10] [h]	half-life [10] [h]	Fp.o. [10]	% Max LH Suppression [6] [%]	time of % Max LH Suppression [6] [h]
Cc1cc2c(cc1Cc1ccc(C(=O)NCC3CCC(CNC(=N)N)CC3)o1)C(C)(C)CCC2(C)C (stereo not shown) [Compound 9]	30	220 ± 33	220	40	680 ± 120	680	3800 ± 220	2300 ± 460	2300											
CCOC(=O)[C@H]1CC[C@H](CNC(=O)c2ccc(Cc3cc4c(cc3C)C(C)(C)CCC4(C)C)o2)CC1 [Compound 31]			140			2800			1880	Antag- onist	8900									
COc1cc(OC)c(NC(=O)c2ccc(Cc3c(C)ccc4c3OCCC4(C)C)o2)c(OC)c1 [Compound 222]			110			78			65			575	115	167	810	1.5	3.2	54% (10 mg/kg)^10		
COc1cccc(OC)c1NC(=O)c1ccc(Cc2c(C)c(C)cc(C)c2C)o1 [Compound 225]			174			1510			850			2180	450	330	340	1	1.1	24% (10 mg/kg)^10		
COc1cccc(OC)c1NC(=O)c1ccc(Cc2c(C)c(C)c(Br)c(C)c2C)o1 [Compound 226]			240			2130			720			990	369	173	420	1 to 5	4.6	34% (10 mg/kg)^10		
COc1cc(C)c(Cl)c(C)c1Cc1ccc(C(=O)Nc2c(OC)cccc2OC)o1 [Compound 233]			60			51			68			2988	773	338	340	1	1.4	34% (10 mg/kg)^10		

These reach a lower IC50 ([2]; read-out: hGnRH IC50). Values come first.

Kb [1] [nM]	IC50 ([2]; means ± SE of at least three experiments performed in duplicate, read-out: Human IC50) [nM]	IC50 ([2]; read-out: hGnRH IC50) [nM]	IC50 ([2]; second value marked * (mostly in parentheses), asterisk not explained, read-out: hGnRH IC50, value marked *) [nM]	IC50 ([3]; means ± SE of at least three experiments performed in duplicate, read-out: Rat IC50) [nM]	IC50 ([3]; read-out: rGnRH IC50) [nM]	IC50 ([4]; means ± SE of at least three experiments performed in duplicate, read-out: Bovine IC50) [nM]	IC50 ([5]; means ± SE of at least three experiments performed in duplicate, read-out: Mouse IC50) [nM]	IC50 ([5]; read-out: mGnRH IC50) [nM]	GnRH functional ([1]; no species or readout annotated)	IC50 ([4]; read-out: bGnRH IC50) [nM]	Rat male pmol/min/mg 1 μM [7] [pmol/min/mg]	Human pmol/min/mg 1 μM [8] [pmol/min/mg]	Rat female pmol/min/mg 1 μM [9] [pmol/min/mg]	Cmax [10] [nM]	Tmax [10] [h]	half-life [10] [h]	Fp.o. [10]	Structure (SMILES)	% Max LH Suppression [6] [%]	time of % Max LH Suppression [6] [h]
		52			23			83			1794	689	330					COc1cccc(OC)c1NC(=O)c1ccc(Cc2cc(C(C)(C)C)ccc2C)o1 [Compound 206]	51	1
		15			11			9.2			528	116	223	340	1	3	41% (10 mg/kg)^10	COc1cc(OC)c(NC(=O)c2ccc(Cc3cc4c(cc3C)OCCC4(C)C)o2)c(OC)c1 [Compound 221]		
		27			57			14			320	641	227	70	0.5	2.4	2% (10 mg/kg)^10	COc1cc(NS(C)(=O)=O)c(NC(=O)c2ccc(Cc3cc4c(cc3C)C(C)(C)CCC4(C)C)o2)c(OC)c1 [Compound 228]		
